Where no end group is shown, it is not given here. [ ]: non-standard residue; d: D form.
Assays:
rat pituitary cells [1] = experiment: Pituitary cell desensitization - intracellular calcium assay; format: cell-based
From the text: Thus, it appears that sustained release formulations would not provide the desired in vivo response. The experiment was designed so that changes in intracellular calcium concentration could be continuously monitored during successive exposures of the same cells to the indicated test substances.
Rat pituitary cells were isolated as described in Example 3 and plated onto poly-D-lysine-coated glass coverslips, one coverslip per well in 12-well plates, at a density of 3-4×10^5 cells per well. Assays were performed 3-4 days after plating. Cells were loaded with 5 μM fura-2 AM (Molecular Probes, Eugene, Oreg.), a calcium-sensitive fluorescent dye, by incubation for 30 min at room temperature. Fura-2 was dissolved in dimethylsulfoxide at 5 mM, then diluted into KRH buffer (115 mM NaCl, 5.4 mM KCl, 1.8 mM CaCl2, 1 mM MgCl2, 0.96 mM NaH2PO4, 25 mM HEPES, 6 mM glucose and 0.05% bovine serum albumin, adjusted to pH 7.3)
To assay changes in intracellular calcium concentration, a coverslip with attached cells was mounted in a perfusion chamber on the stage of an inverted microscope (Zeiss Axiovert 135 with epifluorescence, Geschaftsbereich Mikroscopie, Oberkochen, Germany) and continuously superfused at room temperature. After superfusion with KRH for 1-2 min, baseline fluorescence was recorded. Each test substance was applied for 2 min, followed by washout with KRH prior to stimulation with the next test substance. Up to 20 individual cells per field were selected for recording and were excited alternately at wavelengths of 380 nm or 340 nm (slit width 15 nm). Fluorescence emission at 510 nm was collected at 5 sec intervals by a low light CCD camera (Hamamatsu Photonics, Hamamatsu City, Japan), and digitized images for the two excitation wavelengths were analyzed using Videoprobe software (ETM Systems, Irvine, Calif.) to determine the 340 nm/380 nm fluorescence ratio for individual cells during each time interval. The 340 nm/380 nm fluorescence ratio is proportional to the concentration of intracellular calcium.

rat pituitary cells [2] = experiment: Pituitary cell desensitization - growth hormone release assay; format: cell-based
Description: The experiment was designed so that cultures were exposed to a growth hormone secretagogue for 60 min, then growth hormone release was measured during a subsequent 15 min exposure to the same or different growth hormone secretagogue.
Anterior pituitary glands from male Wistar rats (150-175 g, Charles River, Laboratories, Wilmington, Mass.) were collected in Hank's Balanced Salt Solution (#14170, Life Technologies, Gaithersburg, Md.). Glands were minced with a scalpel, then incubated with bacterial protease (Type IX, EC3.4.24.4, #P-6141, Sigma Chemicals, Milwaukee, Wis.) at 10 U/ml to release individual cells. Cells were pelleted by centrifugation at 200×g for 15 min, then suspended in culture medium and plated at a density of 6.0-6.5×10^4 cells per 0.5 ml per well in 48-well tissue culture plates (#3848, Costar Corporation, Cambridge, Mass.). Culture medium consisted of D-MEM (Dulbecco's Modified Eagle Medium) with high glucose and sodium bicarbonate (#11965) supplemented with 10% heat-inactivated horse serum (#26050, Life Technologies, Gaithersburg, Md.), 2.5% fetal bovine serum (#16140, Life Technologies, Gaithersburg, Md.), 0.1 mM MEM non-essential amino acids (#11140, Life Technologies, Gaithersburg, Md.), 100 U/ml nystatin (#15340, Life Technologies, Gaithersburg, Md.) and 50 ug/ml gentamicin sulfate (#15750, Life Technologies, Gaithersburg, Md.). Cultures were maintained for 3-4 days in a humidified, 5% CO2/95% air incubator at 37° C. prior to performing assays for growth hormone release.
For growth hormone release assays, cultures were pre-equilibrated at 37° C. in pre-warmed release medium for 1 h in the presence of a growth hormone secretagogue or excipient (Pretreatment). Release medium consisted of Phenol Red-free D-MEM without bicarbonate (#23800, Life Technologies, Gaithersburg, Md.) supplemented with 25 mM N-[2-hydroxyethyl]piperazine-N′-[2-ethanesulfonic acid] (HEPES), 4.5 g/L glucose, 0.11 g/L sodium pyruvate, 0.584 g/L […] and 0.5% bovine serum albumin (#A-7888, Sigma Chemicals, Milwaukee, Wis.), adjusted to pH 7.4. After pretreatment, the medium was removed and replaced with fresh pre-warmed release medium containing a growth hormone secretagogue or excipient at 0.5 ml/well for 15 min (Treatment). Medium from the Treatment was collected, centrifuged to remove any cells, then assayed for growth hormone content by a conventional double-antibody radioimmunoassay using monkey anti-growth hormone antisera (NIDDK anti-rGH-S-5) and reference rat growth hormone standard (NIDDK-rGH-RP) from Dr. A. F. Parlow, Harbor-UCLA Medical Center, Torrance, Calif. Immune complexes were precipitated using goat anti-monkey immunoglobulin G (#55418, Cappel, Durham, N.C.).
Growth hormone secretagogue solutions were prepared at 1000 times the desired concentration and diluted into pre-warmed release medium immediately before use. Peptides such as His-D-Trp-Ala-Trp-Ala-Trp-D-Phe-Lys-NH2 (GHRP-6, #8061, Peninsula Laboratories, Belmont, Calif.) and rat growth hormone releasing factor (GHRH, #8068, Peninsula Laboratories, Belmont, Calif.) were dissolved at 100 μM in 4 mM acetic acid, 10% ethanol, 0.1% bovine serum albumin; other growth hormone secretagogues were dissolved at 5 mM in dimethyl sulfoxide.

## [Cl-].[K+] [KCl, reference compound]
Rat pituitary cells [1]; after re-exposure to Compound A
  response of the same (refractory) cells: remained responsive

## GHRH: rat growth hormone releasing factor (GHRH, #8068, Peninsula Laboratories) (HADAIFTSSYRRILGQLYARKLLHEIMNRQQGERNQEQRSRFN; Somatoliberin; UniProt P09916 31-73, looked up) [reference compound]
Rat pituitary cells [2]; pretreatment 100 nM GHRH 60 min, treatment none
  GH release: 12.67 ± 3.31 ng/mL/15 min

## H[dW]AWAW[dF]K-NH2 [GHRP-6, reference compound]
Rat pituitary cells [2]; pretreatment 100 nM GHRP-6 60 min, treatment 100 nM GHRP-6 15 min
  GH release: 7.83 ± 0.98 ng/mL/15 min
Rat pituitary cells [2]; pretreatment 100 nM GHRP-6 60 min, treatment none
  GH release: 9.06 ± 1.87 ng/mL/15 min
Rat pituitary cells [2]; pretreatment none, treatment 100 nM GHRP-6 15 min, mean ± SD, n = 4
  GH release: 31.01 ± 8.46 ng/mL/15 min
Rat pituitary cells [1]; successive 2 min exposures with washout
  cellular responses (intracellular calcium) on repeated exposure: homologous desensitization
